# Biological target: T1, SOS1 protein (Homo sapiens, UniProt Q07889)
# T1 sequence (Q07889 1-1333): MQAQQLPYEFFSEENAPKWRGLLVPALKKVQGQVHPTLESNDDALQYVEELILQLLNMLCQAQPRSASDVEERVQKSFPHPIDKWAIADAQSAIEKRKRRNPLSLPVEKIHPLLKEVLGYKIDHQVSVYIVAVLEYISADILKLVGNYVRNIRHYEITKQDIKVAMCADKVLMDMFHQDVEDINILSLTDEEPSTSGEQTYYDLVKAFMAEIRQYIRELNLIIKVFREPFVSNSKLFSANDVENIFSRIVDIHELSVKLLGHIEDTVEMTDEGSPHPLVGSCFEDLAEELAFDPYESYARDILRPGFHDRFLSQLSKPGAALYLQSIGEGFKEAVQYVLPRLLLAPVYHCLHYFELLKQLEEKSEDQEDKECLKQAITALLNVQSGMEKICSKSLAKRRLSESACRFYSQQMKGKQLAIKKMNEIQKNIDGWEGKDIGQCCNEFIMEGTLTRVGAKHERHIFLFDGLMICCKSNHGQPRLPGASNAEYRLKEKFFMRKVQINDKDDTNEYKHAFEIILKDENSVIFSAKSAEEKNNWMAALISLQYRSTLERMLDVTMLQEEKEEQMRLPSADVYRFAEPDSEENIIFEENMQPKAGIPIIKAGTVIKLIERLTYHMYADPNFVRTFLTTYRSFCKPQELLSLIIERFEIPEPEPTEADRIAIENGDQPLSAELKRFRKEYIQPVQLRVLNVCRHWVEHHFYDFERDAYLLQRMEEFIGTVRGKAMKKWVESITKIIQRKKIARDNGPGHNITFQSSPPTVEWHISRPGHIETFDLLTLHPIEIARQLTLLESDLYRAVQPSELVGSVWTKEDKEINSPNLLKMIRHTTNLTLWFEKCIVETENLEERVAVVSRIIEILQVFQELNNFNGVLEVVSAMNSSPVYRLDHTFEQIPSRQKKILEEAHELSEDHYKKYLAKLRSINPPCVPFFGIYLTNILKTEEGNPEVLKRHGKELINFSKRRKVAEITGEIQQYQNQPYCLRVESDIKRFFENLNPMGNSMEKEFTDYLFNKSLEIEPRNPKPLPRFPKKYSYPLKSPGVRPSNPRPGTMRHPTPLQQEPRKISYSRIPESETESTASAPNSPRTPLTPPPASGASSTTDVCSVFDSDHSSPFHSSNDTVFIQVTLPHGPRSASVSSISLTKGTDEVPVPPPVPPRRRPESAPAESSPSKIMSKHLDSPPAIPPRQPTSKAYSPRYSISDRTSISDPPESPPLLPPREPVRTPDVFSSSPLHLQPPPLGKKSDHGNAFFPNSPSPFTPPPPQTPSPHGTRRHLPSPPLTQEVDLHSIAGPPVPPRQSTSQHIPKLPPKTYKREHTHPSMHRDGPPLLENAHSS
# Test: SOS1 degradation assay (Western blot) in A-427 cells
# Type: cell-based
# Design: host or cells: NCI-H358, A-427, SW-620, DLD-1 (human cancer cell lines)
# Conditions: A-427 (KRAS G12D), 24 h; for DC50: read-out: A427 (G12D) DC50; for Dmax: read-out: A427 (G12D) Dmax
# Procedure: Test Example 2: SOS1 Degradation Assay
# The degradation of SOS1 by the compounds was investigated on KRAS G12C mutant human non-small cell lung cancer cells NCI-H358 (ATCC or Stem Cell Bank, Chinese Academy of Sciences), KRAS G12D mutant human lung cancer cells A-427 (ATCC), KRAS G12V mutant human colorectal adenocarcinoma cells SW-620 (ATCC), and KRAS G13D mutant human colorectal adenocarcinoma epithelial cells DLD-1 (ATCC). The specific procedures were as follows:
# 0.95 mL of cells were seeded into each well of a 24-well cell culture plate to achieve a cell density of 5×10^5 cells/well; the cell plate was incubated in an incubator at 37° C. with 5% CO2 overnight. Then 50 μL of the compound solution after dilution was added to each of the wells with the corresponding cells, so that the final concentration of the compound was in a range of 0.03-3000 nM. The final concentration of DMSO was 0.25%.
# After dosing, the cell plate was incubated in an incubator at 37° C. with 5% CO2 for 24 h. The cell culture medium in the 24-well plate was removed, and the plate was washed twice with 1×PBS. 180 μL of RIPA (strong) lysis buffer (Beyotime, P0013B) supplemented with 1 mM phenylmethylsulfonyl fluoride, a protease inhibitor mixture (Beyotime, P1008), and a protease phosphatase inhibitor mixture (Beyotime, P1045) was added to lyse adherent NCI-H358 cells at the bottom of the cell culture plate. After the plate was left to stand on ice for 30 min, the protein lysate in each well was transferred to a 1.5 mL centrifuge tube and centrifuged at 15000 g for 20 min at 4° C. […] The concentration of total protein in the cell lysate supernatant was determined using the BCA Protein Quantification Kit (Tiangen, PA115-02). […]
# The concentration of total protein in the cell lysate was determined by BCA. […] After the blocking, the PVDF membrane was incubated with an SOS1 primary antibody (Abcam, ab140621) at 4° C. overnight, washed with a TBST buffer (2.4 g of Tris, 8.8 g of NaCl, 1.5 mL of Tween 20, with pH adjusted to 7.4, with the volume brought to 1 L) for 30 min (10 min/time), incubated with a secondary antibody (Abcam, ab205718) at room temperature for 2 h, washed with a TBST buffer for 30 min (10 min/time), and finally incubated with Clarity Western ECL Substrate (BIO-RAD, 170-5061) for 5 min for luminescence and color development, and a chemiluminescence imaging system (Clinx, ChemiScope 6200 Touch) was used for color development and protein mapping. […] The gray correction value for each sample was calculated by the formula: gray correction value=(gray value of target protein/gray value of corresponding internal reference)×103. Then the degradation rate was calculated by comparing the gray correction value with the gray correction value of the control group. […]
DC50 [nM],Dmax [%],SMILES
≤ 50,80 to 100,"COc1cc2nc(C)nc(N[C@H](C)c3cc(-c4c(Cl)cccc4CN(C)C)cs3)c2cc1[C@H]1CC[C@H](C(=O)N2CCN(CC3CCC4(CC3)CCN(C(=O)c3ccc(Cl)c(N5CCC(=O)NC5=O)c3)CC4)CC2)CC1 [Example 1, 1-(2-chloro-5-(9-((4-((1R,4R)-4-(4-(((R)-1-(4-(2-chloro-6-((dimethylamino)methyl)phenyl)thien-2-yl)ethyl)amino)-7-methoxy-2-methylquinazolin-6-yl)cyclohexane-1-carbonyl)piperazin-1-yl)methyl)-3-azaspiro[5.5]undecane-3-carbonyl)phenyl)dihydropyrimidine-2,4(1H,3H)-dione]"
≤ 50,50 to 80,"COc1cc2nc(C)nc(N[C@H](C)c3cc(-c4c(Cl)cccc4CN(C)C)cs3)c2cc1[C@H]1CC[C@H](C(=O)N2CCC(CCOCC3CCN(C(=O)c4ccc(Cl)c(N5CCC(=O)NC5=O)c4)CC3)CC2)CC1 [Example 5, 1-(2-chloro-5-(4-((2-(1-((1R,4R)-4-(4-(((R)-1-(4-(2-chloro-6-((dimethylamino)methyl)phenyl)thien-2-yl)ethyl)amino)-7-methoxy-2-methylquinazolin-6-yl)cyclohexane-1-carbonyl)piperidin-4-yl)ethoxy)methyl)piperidine-1-carbonyl)phenyl)dihydropyrimidine-2,4(1H,3H)-dione]"

# Reference: patent US20240261418A1, “SOS1 DEGRADING AGENT AND PREPARATION METHOD THEREFOR AND APPLICATION THEREOF” (SHANGHAI LEADINGTAC PHARMACEUTICAL CO. LTD., priority 2021, published 2024)
